Experimental data from the supplement of paper PMC10307832.

compound: C1CCC(CC1)N(CCNCCC2=C3C(=C(C=C2)O)NC(=O)CO3)C(=O)CCNCCC4=CC(=C(C=C4)Cl)Cl [AZ505] + COc1cccc2cc(-c3nc([C@H]4CC[C@H](C(=O)O)CC4)n4ncnc(N)c34)[nH]c12 [OSI-027] (partner 0.5 µM); assay: relative viability (nuclei count vs DMSO), 5 days (fraction); higher = more cells survive; settings: first compound 0.08 µM
Outline: (§1)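 Each reported value is a median over duplicate plates. It expresses relative viability: treated-well nuclei count divided by vehicle-well nuclei count. Lung cancer cell lines in 1536-well plates were dosed by pin tool a day after seeding, alone with one drug or with a fixed anchor-drug dose plus five library-drug doses (not always all listed) in √10 steps, and nuclei were counted after 5 days.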

Going from NCI-H1792 to NCI-H1355, the relative viability falls from 0.712 to 0.395.

Going from NCI-H3122 to NCI-H1437, the relative viability falls from 0.927 to 0.864.

First: NCI-H1755
Second: NCI-H2023
The relative viability of the first is higher: 0.763 for the first, 0.437 for the second.

Going from HCC-15 to NCI-H1793, the relative viability falls from 0.612 to 0.245.

Going from PC-14 to EKVX, the relative viability falls from 0.72 to 0.674.

Compared with LC-2-ad, NCI-H1944 is lower in relative viability: 0.747 for the first, 0.396 for the second.

First: NCI-H1975
Second: RERF-LC-KJ
The relative viability of the first is higher: 0.636 for the first, 0.471 for the second.

First: ABC-1
Second: NCI-H358
The relative viability of the first is lower: 0.469 for the first, 0.715 for the second.

Going from NCI-H650 to PC-3 [JPC-3], the relative viability rises from 0.503 to 0.671.

same assay, conditions: first compound 0.253 µM

First: EPLC-272H
Second: NCI-H2228
The relative viability of the first is lower: 0.251 for the first, 0.341 for the second.

First: NCI-H1355
Second: NCI-H3122
The relative viability of the first is lower: 0.319 for the first, 0.917 for the second.

First: NCI-H1437
Second: NCI-H1755
The relative viability of the first is higher: 0.963 for the first, 0.73 for the second.

Compared with NCI-H2023, HCC-15 is higher in relative viability: 0.322 for the first, 0.624 for the second.

Compared with NCI-H1793, PC-14 is higher in relative viability: 0.228 for the first, 0.835 for the second.

Going from EKVX to LC-2-ad, the relative viability rises from 0.714 to 0.759.

Going from NCI-H1944 to NCI-H1975, the relative viability rises from 0.389 to 0.724.

Going from RERF-LC-KJ to ABC-1, the relative viability falls from 0.575 to 0.325.

First: NCI-H358
Second: NCI-H650
The relative viability of the first is higher: 0.769 for the first, 0.552 for the second.

Work on PC-3 [JPC-3] yielded a relative viability of 0.798.

same assay, conditions: first compound 0.8 µM

First: EPLC-272H
Second: NCI-H2228
The relative viability of the first is lower: 0.22 for the first, 0.49 for the second.

Compared with NCI-H1792, NCI-H1355 is lower in relative viability: 0.687 for the first, 0.384 for the second.

First: NCI-H3122
Second: NCI-H1437
The relative viability of the first is higher: 1.05 for the first, 0.911 for the second.

Going from NCI-H1755 to NCI-H2023, the relative viability falls from 0.643 to 0.421.

Compared with HCC-15, NCI-H1793 is lower in relative viability: 0.596 for the first, 0.344 for the second.

Going from PC-14 to EKVX, the relative viability rises from 0.666 to 0.684.

First: LC-2-ad
Second: NCI-H1944
The relative viability of the first is higher: 0.629 for the first, 0.497 for the second.

First: NCI-H1975
Second: RERF-LC-KJ
The relative viability of the first is higher: 0.804 for the first, 0.552 for the second.

Compared with ABC-1, NCI-H358 is higher in relative viability: 0.521 for the first, 0.652 for the second.

Going from NCI-H650 to PC-3 [JPC-3], the relative viability rises from 0.529 to 0.712.

same assay, conditions: first compound 2.53 µM

Compared with EPLC-272H, NCI-H2228 is higher in relative viability: 0.263 for the first, 0.485 for the second.

Going from NCI-H1792 to NCI-H1355, the relative viability falls from 0.718 to 0.362.

Going from NCI-H3122 to NCI-H1437, the relative viability falls from 0.875 to 0.823.

First: NCI-H1755
Second: NCI-H2023
The relative viability of the first is higher: 0.742 for the first, 0.393 for the second.

Compared with HCC-15, PC-14 is higher in relative viability: 0.594 for the first, 0.765 for the second.

Compared with EKVX, LC-2-ad is higher in relative viability: 0.645 for the first, 0.876 for the second.

Going from NCI-H1944 to NCI-H1975, the relative viability rises from 0.385 to 0.82.

First: RERF-LC-KJ
Second: ABC-1
The relative viability of the first is higher: 0.574 for the first, 0.493 for the second.

First: NCI-H358
Second: NCI-H650
The relative viability of the first is lower: 0.556 for the first, 0.671 for the second.

For PC-3 [JPC-3], the relative viability was 0.707.

same assay, conditions: first compound 8 µM

Compared with EPLC-272H, NCI-H2228 is higher in relative viability: 0.283 for the first, 0.477 for the second.

First: NCI-H1792
Second: NCI-H1355
The relative viability of the first is higher: 0.739 for the first, 0.429 for the second.

First: NCI-H3122
Second: NCI-H1437
The relative viability of the first is higher: 0.996 for the first, 0.872 for the second.

First: NCI-H1755
Second: NCI-H2023
The relative viability of the first is higher: 0.691 for the first, 0.398 for the second.

Going from HCC-15 to NCI-H1793, the relative viability falls from 0.726 to 0.37.

Going from PC-14 to EKVX, the relative viability falls from 0.786 to 0.717.

First: LC-2-ad
Second: NCI-H1944
The relative viability of the first is higher: 0.912 for the first, 0.425 for the second.

Going from NCI-H1975 to RERF-LC-KJ, the relative viability falls from 0.812 to 0.492.

First: ABC-1
Second: NCI-H358
The relative viability of the first is lower: 0.558 for the first, 0.767 for the second.

Compared with NCI-H650, PC-3 [JPC-3] is higher in relative viability: 0.54 for the first, 0.797 for the second.

compound: C1CCC(CC1)N(CCNCCC2=C3C(=C(C=C2)O)NC(=O)CO3)C(=O)CCNCCC4=CC(=C(C=C4)Cl)Cl [AZ505] + N=C(N)NC(=N)NCCc1ccccc1 [Phenformin] (partner 250 µM); assay: as above; settings: first compound 0.08 µM
Outline: as §1

Going from NCI-H2228 to NCI-H1792, the relative viability rises from 0.291 to 0.302.
